Results: patent US12503432B2, “Ionizable lipids for nucleic acid delivery” (Global Life Sciences Solutions Canada ULC, priority 2019, dated 2025)

What was measured:
[1] = LNP characterization: size and PDI by dynamic light scattering, mRNA encapsulation efficiency by RiboGreen assay; type: physicochemical
Method: Particle sizes and “polydispersity index” (PDI) of the lipid particle were measured by dynamic light scattering (DLS). PDI indicates the width of the particle distribution. This is a parameter calculated from a cumulative analysis of the (DLS)-measured intensity autocorrelation function assuming a single particle size mode and a single exponential fit to the autocorrelation function. […] The particles produced by mechanical micromixers such as the NanoAssemblr® Spark™ and NanoAssemblr® Benchtop (Precision NanoSystems Inc.) are substantially homogeneous in size assuming all other variables are neutral. A lower PDI indicates a more homogenous population of lipid particles. The Spark™ instrument is used in a screening setting to identify the lead compositions. Once the composition is selected, the lipid particle can be fine-tuned using the NanoAssemblr® Benchtop. Once the process parameters Flow Rate Ratio and Total Flow Rate is identified for the specific nanoparticle composition, the nanoparticle technology can be scaled up using the same process parameter values.
Lipid particles were also manufactured by a larger microfluidic mixer instrument, the NanoAssemblr® Ignite™ for testing. Briefly, 350 μL of mRNA was diluted using 100 mM sodium acetate buffer to the required concentration of 0.2 to 0.3 mg/mL. Lipid particle samples were then prepared by running both fluids, namely, nucleic acids in aqueous solvent and Lipid Mix in ethanol at a flow ratio of 3:1 and at a total flow rate of 12 ml/min in the microfluidic mixer. Following mixing in the microfluidic device, the post cartridge lipid nucleic acid particle sample was diluted into RNAse free tubes containing three to 40 volumes of phosphate buffered saline (PBS), pH 7.4. Ethanol was finally removed through dialysis in PBS, pH 7, or using Amicon™ centrifugal filters (Millipore, USA) at 3000 RPM, or using TFF systems. Once the required concentration was achieved, the lipid nucleic acid particles were filter sterilized using 0.2 μm filters in aseptic conditions. Final encapsulation efficiency was measured by the Ribogreen™ assay. Quant-iT™ RiboGreen® RNA Reagent and Kit (Invitrogen) following manufacturer directions.
Messenger RNA or plasmid nucleic acid therapeutic (NAT) as described below, was diluted using sodium acetate buffer to the required concentration. Lipid nucleic acid particle (LNAP) samples were then prepared by running both fluids using the NanoAssemblr® Spark instrument. Briefly, […] of nucleic acids in 100 mM sodium acetate buffer in a total volume of 32 μL was mixed with 16 μL of 37.5 mM lipid mix solution as required by the N/P ratios (4, 6, or 10 in illustrated examples). The microfluidically mixed lipid nucleic acid particles (LNAP) made in the instrument were immediately diluted down with 48 μL Ca++ and Mg++ free 1× PBS at pH 7.4 in the aqueous output well. These LNAP were immediately collected into microcentrifuge tubes containing 96 μL of the same buffer at pH 7.4. Encapsulation efficiency was measured by a modified Ribogreen™ assay (Quanti-iT RiboGreen™ RNA assay kit, Fisher). This information was used to establish the desired dosage.
After the lipid particles were made as described in Example 17, particle size (hydrodynamic diameter of the particles) was determined by Dynamic Light Scattering (DLS) using a ZetaSizer™ Nano ZS™ (Malvern Instruments, UK). He/Ne laser of 633 nm wavelength was used as the light source. Data were measured from the scattered intensity data conducted in backscattering detection mode (measurement angle=173). Measurements were an average of 10 runs of two cycles each per sample. Z-Average size was reported as the particle size, and is defined as the harmonic intensity averaged particle diameter. These LNP characteristics, as well as the results of the mRNA encapsulation efficiency for various Lipid Mixes are also described in the application are shown in Tables 4, 5 and 6. […]

primary human T cells = assay: EPO mRNA LNP delivery to primary human T cells, Quantikine IVD Human Epo ELISA; type: cell-based
Method: Reagents were acquired from Quantikine, Minneapolis, MN. The assay was performed as directed on the Quantikine® IVD® ELISA Human Erythropoietin Immunoassay protocol in the package insert. Briefly; primary human T cells were isolated from fresh whole blood using a negative selection protocol and activated using a triple activator. Seven days post-activation, T cells were dosed with mRNA LNPs encoding EPO at […] mRNA per 500,000 cells and N/P 10. After 48 h of exposure, the T cells were harvested and lysed for cytosolic EPO and media supernatant was sampled for secreted EPO. Quantikine® Human Serum Controls were used.

[2] = 5-moU EPO encoded LNPs, IL:DSPC:cholesterol:DMG-PEG (50:10:38.5:1.5), N/P 6
[3] = OVA encoded LNPs, payload 5-moU OVA, LM02, N/P 8
[4] = OVA encoded LNPs, payload WT OVA, LM02, N/P 8
[5] = Table 4 LNPs, payload and lipid mix not stated

SMILES: CCCCC/C=C\C/C=C\CCCCCCCCC(CCCCCCCC/C=C\C/C=C\CCCCC)OC(=O)CCCN(C)C [MC3, DLin-MC3-DMA, reference compound]
- Diameter (Z. ave, nm) [1, 2]: 65.1 nm
- Encapsulation Efficiency (%) [1, 2]: 98.8%
- Polydispersity Index (PDI) [1, 2]: 0.04
- Diameter (Z. ave, nm) [1, 3]: 65.8 nm
- Encapsulation Efficiency (%) [1, 3]: 95.2%
- Polydispersity Index (PDI) [1, 3]: 0.07
- Diameter (Z. ave, nm) [1, 4]: 67.5 nm
- Encapsulation Efficiency (%) [1, 4]: 95.4%
- Polydispersity Index (PDI) [1, 4]: 0.03
- Diameter (Z. ave, nm) [1, 5]: 77.2 nm
- Encapsulation Efficiency (%) [1, 5]: 88.6%
- Polydispersity Index (PDI) [1, 5]: 0.07
- cytosolic EPO (primary human T cells; T cell lysate, 48 h exposure, N/P 10, FIG. 5): no cytosolic EPO
- secreted EPO (primary human T cells; media supernatant, 48 h exposure, N/P 10, FIG. 5): about 545 mlU/mL
- Fold increase in EPO concentration relative to MC3 (primary human T cells; primary human T cells, 48 hours): 1.0
- EPO concentration (mIU/mL), 48 hours (primary human T cells; primary human T cells, 48 hours, EPO mRNA LNP, N/P 10): 545.2 mIU/mL
